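How tested: cells in 96-well plates exposed to compound for 48 hours at five concentrations. GI50: concentration for 50% inhibition of growth. Definition used: TGI = concentration required for complete inhibition of growth.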
Assays:
Experiment in all cases: inhibition of tumour cell growth, NCI panel, 48 h
CAKI-1 renal = test system: CAKI-1 renal
COLO 205 colon = test system: COLO 205 colon
HCC-2998 colon = test system: HCC-2998 colon
IGROV1 ovarian = test system: IGROV1 ovarian
LOX IMVI melanoma = test system: LOX IMVI melanoma
NCI-H522 lung = test system: NCI-H522 lung
OVCAR-4 ovarian = test system: OVCAR-4 ovarian
RXF 393 renal = test system: RXF 393 renal
SK-MEL-2 melanoma = test system: SK-MEL-2 melanoma
BT-549 breast = test system: BT-549 breast

Row | SMILES | TGI (CAKI-1 renal) | TGI (COLO 205 colon) | TGI (HCC-2998 colon) | TGI (IGROV1 ovarian) | TGI (LOX IMVI melanoma) | TGI (NCI-H522 lung) | TGI (OVCAR-4 ovarian) | TGI (RXF 393 renal) | TGI (SK-MEL-2 melanoma) | TGI (BT-549 breast) | GI50 (BT-549 breast) | GI50 (COLO 205 colon) | GI50 (HCC-2998 colon) | GI50 (IGROV1 ovarian) | GI50 (LOX IMVI melanoma) | GI50 (NCI-H522 lung) | GI50 (OVCAR-4 ovarian) | GI50 (SK-MEL-2 melanoma)
1 | COc1cccc2cc(C)c(C(=O)c3ccccc3)nc12 | > 100 µM | > 100 µM | > 100 µM | > 100 µM | > 100 µM | > 100 µM | > 100 µM | > 100 µM | > 100 µM | – | – | – | – | – | – | – | – | –
2 | N/N=C(\C(=O)Nc1c(Cl)cc([N+](=O)[O-])cc1Cl)C(c1cnc2ccc([N+](=O)[O-])cc2n1)[N+](=O)[O-] (configuration not stated) | > 100 µM | > 100 µM | > 100 µM | > 100 µM | > 100 µM | 53.3 µM | > 100 µM | > 100 µM | > 100 µM | – | – | – | – | – | – | – | – | –
3 | Cc1ccc2c(=O)cc(-c3csc4ccccc34)[nH]c2n1 | 0.228 µM | 0.756 µM | – | 16.7 µM | > 100 µM | < 0.01 µM | – | – | – | 22.3 µM | – | – | – | – | – | – | – | –
4 | CCC1C(=O)C[C@H]2[C@@H]3C(O)CC4=CC(=O)CC[C@]4(C)[C@H]3CC[C@]12C (some centres not stated) | > 50 µM | > 50 µM | > 50 µM | > 50 µM | > 50 µM | > 50 µM | > 50 µM | – | > 50 µM | – | – | – | – | – | – | – | – | –
5 | Brc1ccc(N=NN2CCCCC2)cc1 | > 100 µM | > 100 µM | – | > 100 µM | > 100 µM | > 100 µM | > 100 µM | > 100 µM | 45.4 µM | > 100 µM | – | – | – | – | – | – | – | –
6 | CC(=O)C1CC(C)=CCC12C(=O)Nc1ccccc12 (configuration not stated) | > 100 µM | > 100 µM | > 100 µM | > 100 µM | > 100 µM | > 100 µM | > 100 µM | 68.9 µM | > 100 µM | – | – | – | – | – | – | – | – | –
7 | CCNC(=O)Nc1cccc(C)n1 | > 100 µM | > 100 µM | > 100 µM | > 100 µM | – | > 100 µM | > 100 µM | > 100 µM | – | > 100 µM | – | – | – | – | – | – | – | –
8 | CC(=O)C(C(C)=O)=C1CCCC(O)O1 (configuration not stated) | – | > 100 µM | > 100 µM | > 100 µM | – | – | > 100 µM | > 100 µM | – | – | – | – | – | – | – | – | – | –
9 | Cc1ccc(C)n2c1nc1ccc3ccccc3c12 | – | > 100 µM | > 100 µM | > 100 µM | – | – | – | > 100 µM | – | > 100 µM | – | – | – | – | – | – | – | –
10 | COc1ccc(N(C(=O)Nc2ccc(Cl)c(Cl)c2)c2ccccc2)cc1 | > 10 µM | > 10 µM | > 10 µM | > 10 µM | > 10 µM | > 10 µM | > 10 µM | > 10 µM | – | > 10 µM | – | – | – | – | – | – | – | –
11 | COc1ccc2c3c1OC1CC(O)C=CC31CCN(C)C2 (configuration not stated) | > 150 µM | > 150 µM | > 150 µM | > 150 µM | > 150 µM | > 150 µM | > 150 µM | > 150 µM | > 150 µM | – | – | – | – | – | – | – | – | –
12 | CCOC(=O)/C(=C\NCC(O)c1ccccc1)c1nc2ccccc2[nH]1 (configuration not stated) | > 100 µM | 49.8 µM | 42.2 µM | 57.4 µM | 37.7 µM | 49 µM | 75.5 µM | > 100 µM | – | 98.7 µM | – | – | – | – | – | – | – | –
13 | COc1cc(OC)c2c(O)cc(CC(C)O)cc2c1 (configuration not stated) | > 100 µM | > 100 µM | > 100 µM | > 100 µM | > 100 µM | > 100 µM | > 100 µM | > 100 µM | > 100 µM | – | – | – | – | – | – | – | – | –
14 | COC1C(O)CC(OC2C(C)OC(Oc3cc(O)c4c(O)c5c(cc4c3)C[C@@H]([C@H](OC)C(=O)[C@@H](O)[C@@H](C)O)[C@H](OC3CC(OC4CC(OC6CC(C)(O)C(O)C(C)O6)C(O)C(C)O4)C(O)C(C)O3)C5=O)CC2OC(C)=O)OC1C (some centres not stated) | > 100 µM | > 100 µM | > 100 µM | > 100 µM | > 100 µM | > 100 µM | > 100 µM | – | > 100 µM | > 100 µM | – | – | – | – | – | – | – | –
15 | CCc1cccc(C(C)C)c1NC(=O)C(=O)C(Cc1nc2ccccc2[nH]c1=O)C(=O)OC (configuration not stated) | > 100 µM | > 100 µM | > 100 µM | > 100 µM | > 100 µM | > 100 µM | > 100 µM | > 100 µM | > 100 µM | – | – | – | – | – | – | – | – | –
16 | Cc1cn(C2CC(n3cc(Cn4cc(F)c(=O)[nH]c4=O)nn3)C(CO)O2)c(=O)[nH]c1=O (configuration not stated) | > 100 µM | > 100 µM | > 100 µM | > 100 µM | > 100 µM | – | > 100 µM | > 100 µM | > 100 µM | > 100 µM | – | – | – | – | – | – | – | –
17 | O=C(Nc1ccccc1)O/N=C(/CBr)c1ccccc1 | 31.7 µM | 32.9 µM | 36.6 µM | 36.9 µM | 16.3 µM | 29.3 µM | 33.8 µM | 48 µM | 30.9 µM | – | – | – | – | – | – | – | – | –
18 | CSc1c(C(=O)Nc2ccccc2)c(N)nn1-c1ccccc1 | > 100 µM | > 100 µM | > 100 µM | – | > 100 µM | – | > 100 µM | > 100 µM | > 100 µM | > 100 µM | – | – | – | – | – | – | – | –
19 | COC(=O)CCCc1ccc2c(c1)CC1(C2)Cc2cc3c(cc2C1)CCCC3 | – | 53 µM | 74.5 µM | > 100 µM | 72.1 µM | 84 µM | > 100 µM | 94.2 µM | 57.1 µM | – | – | – | – | – | – | – | – | –
20 | Cc1c(C)c(C)c(-n2[nH]c(=O)n(C)c2=O)c(C)c1C | > 100 µM | > 100 µM | – | > 100 µM | > 100 µM | – | – | – | > 100 µM | > 100 µM | – | – | – | – | – | – | – | –
21 | Cc1ccc2[nH]cc(-c3nc(-c4c[nH]c5ncccc45)cs3)c2c1 | – | > 100 µM | > 100 µM | > 100 µM | > 100 µM | > 100 µM | > 100 µM | – | > 100 µM | > 100 µM | > 100 µM | 0.349 µM | > 100 µM | > 100 µM | > 100 µM | > 100 µM | > 100 µM | > 100 µM
22 | CCCC/C=C1\CCC(CN2CCCCC2)C1=O (configuration not stated) | 17.8 µM | 29 µM | 22.6 µM | 36.7 µM | > 48.2 µM | – | 48 µM | 18.1 µM | > 54.4 µM | > 100 µM | – | – | – | – | – | – | – | –
23 | C=CCC(C)C12CCNC(Cc3ccc(O)cc31)C2C (configuration not stated) | – | > 100 µM | > 100 µM | > 100 µM | > 100 µM | – | > 100 µM | > 100 µM | – | – | – | – | – | – | – | – | – | –
24 | Cc1nc2ccc(S(=O)(=O)Nc3ccc(Cl)cc3)cc2c(=O)n1NC(=O)CNc1ccc(Cl)cc1 | > 100 µM | > 100 µM | > 100 µM | > 100 µM | > 100 µM | > 100 µM | > 100 µM | – | > 100 µM | > 100 µM | – | – | – | – | – | – | – | –

Source: PubChem BioAssay (NCI)
